The target in data set [1] is T1, Human recombinant MAO-B (Homo sapiens, UniProt P27338).
T1 construct: purchased Sigma M7441
T1 sequence (P27338 1-520): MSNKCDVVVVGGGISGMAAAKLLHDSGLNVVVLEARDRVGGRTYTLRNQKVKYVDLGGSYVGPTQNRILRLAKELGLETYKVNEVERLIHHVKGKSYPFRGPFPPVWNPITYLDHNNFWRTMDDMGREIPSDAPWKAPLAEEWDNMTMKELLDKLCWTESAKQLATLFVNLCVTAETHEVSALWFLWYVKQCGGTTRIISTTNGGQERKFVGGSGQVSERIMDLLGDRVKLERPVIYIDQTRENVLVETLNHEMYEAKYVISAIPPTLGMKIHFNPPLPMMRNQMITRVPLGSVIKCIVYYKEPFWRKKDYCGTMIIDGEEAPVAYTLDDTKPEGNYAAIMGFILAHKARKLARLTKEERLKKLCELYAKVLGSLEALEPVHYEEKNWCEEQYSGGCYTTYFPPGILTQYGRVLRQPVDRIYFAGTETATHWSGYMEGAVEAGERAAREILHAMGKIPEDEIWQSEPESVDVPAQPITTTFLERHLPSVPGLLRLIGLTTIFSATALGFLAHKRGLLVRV
Nature of the data set: Saturation binding of radioligand to MAO-B microsomes. As to the method: (§1) The dissociation constant (Kd) was determined by saturation binding, in which the total and non-specific binding of the radioligand was measured at various concentrations. Human recombinant MAO-A, MAO-B, and control microsomes were acquired from Sigma (M7316, M7441, and M7566, respectively). All microsome preparations were at a concentration of 5 mg protein/mL. The reaction mixture (250 μL) contained protein target and ^18F-radioligand, serially diluted in PBS, pH 7.4; assays were performed in PBS (0.01% bovine serum albumin [BSA]) in 96-well polypropylene microplates. […] . Filters were assayed for radioactivity in a Wizard 2480 automatic gamma-counter (Perkin Elmer).

In data set [2] the target is T2, MAO-B microsomes (Homo sapiens, UniProt P27338).
T2 sequence (P27338 1-520): T1 sequence (P27338 1-520)
In words: LC-MS direct saturation binding to MAO-B microsomes.

Data set [3] addresses [^18F]flortaucipir binding to normal human brain (temporal cortex sections). Nature of the data set: [^18F]flortaucipir autoradiography competition binding assay with MAO-A and MAO-B inhibitors. The conditions noted are these: for IC50: normal (tau NFT negative) human temporal cortex sections, 1.4 nM [^18F]flortaucipir, mild PBS wash, read-out: IC50, inhibition of [^18F]flortaucipir binding (autoradiography). On the procedure:
After 60-min incubation at room temperature, PBS washes (4 × 2 min) were used to remove any unbound ligand. […] Signal intensity (counts/pixel) on each section was measured using Multi Gauge V3.0 Imaging software. Total binding was evaluated by nonlinear regression using GraphPad Prism v8 to determine IC50 values.

Data set [4] deals with T2, MAO-B microsomes. Nature of the data set: Competition binding, displacement of safinamide from MAO-B microsomes (LC-MS). The arrangement: purchased Sigma M7441. On the procedure:
IC50 values for each compound were determined by competition binding. […] IC50 values were determined by nonlinear regression analysis using GraphPad Prism.

In data set [5] the target is T3, MAO-A (Rattus norvegicus, UniProt P21396).
T3 construct: Male wild-type Sprague-Dawley rats; from tissue; host or cells: brain of living wild-type Sprague-Dawley rats
T3 sequence (P21396 1-526): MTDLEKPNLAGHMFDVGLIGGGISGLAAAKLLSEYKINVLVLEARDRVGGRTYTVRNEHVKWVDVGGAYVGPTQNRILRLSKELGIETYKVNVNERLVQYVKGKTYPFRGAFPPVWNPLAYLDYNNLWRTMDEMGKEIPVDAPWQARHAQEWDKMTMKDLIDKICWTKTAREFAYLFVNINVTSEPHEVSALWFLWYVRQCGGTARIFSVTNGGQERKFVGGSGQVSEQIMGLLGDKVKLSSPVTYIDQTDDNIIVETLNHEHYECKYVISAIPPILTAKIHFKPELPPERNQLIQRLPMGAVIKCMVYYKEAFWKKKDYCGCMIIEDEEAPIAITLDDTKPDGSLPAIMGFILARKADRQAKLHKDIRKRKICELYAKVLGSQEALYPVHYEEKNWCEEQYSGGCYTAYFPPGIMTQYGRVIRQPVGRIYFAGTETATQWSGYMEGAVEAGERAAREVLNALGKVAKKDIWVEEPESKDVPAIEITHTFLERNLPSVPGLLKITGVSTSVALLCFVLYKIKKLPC
Nature of the data set: In vivo PET imaging in rats with pargyline pre-treatment. The conditions noted are these: for peak brain activity: at 2 min. On the procedure: All procedures in this study followed the guidelines of the Institutional Animal Care and Use Committee of the University of the Sciences, Philadelphia, PA. A Siemens Inveon Multimodality Scanner was used for micro-PET/computed tomography (CT) imaging. Male wild-type Sprague-Dawley rats (128 ± 58 g) were anesthetized with 3% isoflurane with oxygen. Rats were administered [^18F]fluoroethyl-harmol or [^18F]flortaucipir via tail vein injection (7.4-14.8MBq [200–400 μCi] in a total volume of 200 μL). For blocking studies, rats were pre-treated with pargyline (Sigma-Aldrich, 50 mg/kg i.p.) 30 min prior to scans; control rats were pre-treated with 0.9% saline injection (Hospira, i.p.). A short high-resolution CT scan was first conducted for anatomical registration, followed by a 120-min dynamic PET scan. PET images were generated for each minute of the acquisition time. Uptake of the tracers was determined by visually drawing regions of interest based on the fused PET/CT images, and corresponding activity values were determined using Inveon Research Workplace software. All values are represented as % injected dose per gram (ID/g). A total of 6 rats were studied (3 control, 3 pre-treated) for [^18F]fluoroethyl-harmol and 8 rats for [^18F]flortaucipir (4 control, 4 pre-treated).

Data set [6] has as its system frozen human brain slices from AD donors (PHF tau-rich) and non-AD control donors. In words: [^18F]flortaucipir autoradiography, stringent vs mild wash conditions. The data set is classed as binding. On the procedure:
Autoradiography was performed on frozen human brain slices from AD donors (N = 3, PHF tau-rich as determined by AT8 immunohistochemistry) and age-matched non-AD control donors (N = 6, devoid of tau NFTs and beta-amyloid neuritic plaques as determined by immunohistochemistry). Brains slices were obtained from the National Disease Research Interchange (Philadelphia, PA).

Data set [7] addresses isolated human PHF (Homo sapiens, UniProt P10636). Nature of the data set: Saturation binding of radioligand to isolated PHF. As to the method:
Purified, soluble PHF was isolated from AD brain tissue using a protocol modified from the procedure described by Jicha et al.. Briefly, homogenized AD cortex underwent high pressure batch–gas expansion using a Parr Cell disruption bomb and centrifuged at […]. […] Bound PHF was eluted with two column volumes of 3M potassium thiocyanate. Isolated PHF was analyzed in a tau MC-1 ELISA and a tau AT8 ELISA, which recognizes tau phosphorylated at both Ser 202 and Thr 205 [3].
as §1

Data set [8] deals with T4, Human recombinant MAO-A (Homo sapiens, UniProt P21397).
T4 construct: purchased Sigma M7316
T4 sequence (P21397 1-527): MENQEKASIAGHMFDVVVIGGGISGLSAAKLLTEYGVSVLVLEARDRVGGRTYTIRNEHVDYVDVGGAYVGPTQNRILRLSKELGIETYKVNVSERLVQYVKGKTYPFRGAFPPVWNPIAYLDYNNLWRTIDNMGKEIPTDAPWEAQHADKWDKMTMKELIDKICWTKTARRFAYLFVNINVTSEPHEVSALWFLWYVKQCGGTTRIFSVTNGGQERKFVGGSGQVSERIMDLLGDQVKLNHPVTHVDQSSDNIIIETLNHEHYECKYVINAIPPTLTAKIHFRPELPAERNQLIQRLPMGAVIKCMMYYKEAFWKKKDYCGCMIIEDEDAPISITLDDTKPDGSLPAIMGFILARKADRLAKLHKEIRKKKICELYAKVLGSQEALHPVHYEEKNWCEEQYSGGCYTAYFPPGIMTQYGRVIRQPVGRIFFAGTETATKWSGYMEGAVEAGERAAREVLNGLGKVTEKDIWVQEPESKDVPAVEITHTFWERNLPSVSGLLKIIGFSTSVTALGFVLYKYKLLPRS
Nature of the data set: Saturation binding of radioligand to MAO-A microsomes. On the procedure: as §1

The mark [9] stands for this setting: NSB defined as binding to control microsomes.
Where [10] appears, read: NSB defined with 10 μM deprenyl.

SMILES strings stand for the structures. Entries after “also recorded” stand apart in the source; their conditions may differ. Read-outs that look alike come from different tables or passages of the source.

Broadly, the IC50 is the midpoint of a concentration-inhibition curve. In general, Kd refers to the concentration at which binding is half-saturated.

Chain of isolated human PHF (P10636 623-695 limits assumed): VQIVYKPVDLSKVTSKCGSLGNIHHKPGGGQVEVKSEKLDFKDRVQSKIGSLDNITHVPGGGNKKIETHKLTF

For `CNc1ccc(-c2ccc3cc(OC[C@H](O)C[18F])ccc3n2)cn1` [[^18F]THK5351], the Bmax in data set [1] (setting [9]) is given as 49 ± 6.3 pmol ligand/mg total protein; in data set [1] (NSB defined with 1 μM THK5351) it was 54 ± 3.4 pmol ligand/mg total protein; in data set [1] (setting [10]), 51 ± 5.5 pmol ligand/mg total protein.

With `C[C@H](NCc1ccc(OCc2cccc(F)c2)cc1)C(N)=O` [safinamide], in data set [2] (LC-MS, NSB = control microsome), the Bmax was 446 pmol ligand/mg total protein. Also, the IC50 in data set [3] is at least 10000 nM.

`Fc1ccc(-c2ccc3c(c2)[nH]c2ccncc23)cn1` [flortaucipir]: the “specific binding to MAO-B (LC-MS saturation)” value in data set [2] (higher flortaucipir concentrations) is “no specific binding was observed”. Further, the IC50 was 270 nM in data set [3] and 1300 nM in data set [4].

As for `CNc1ccc(-c2ccc3cc(OC[C@H](O)CF)ccc3n2)cn1` [[^18F]THK5351], the Kd in data set [1] (setting [9]) was 37 ± 1.8 nM; in data set [1] (NSB defined with 1 μM THK5351) it was 40 ± 0.7 nM; in data set [1] (setting [10]), 39 ± 1.1 nM.

As for `Cc1nccc2c1[nH]c1cc(OCCF)ccc12` [fluoroethyl-harmol], the IC50 was 780 nM in data set [3] and over 10000 nM in data set [4] (read-out: IC50, displacement of safinamide, 30 nM safinamide, 10 μg MAO-B microsomes).

As for `[18F]c1ccc(-c2ccc3c(c2)[nH]c2ccncc23)cn1` [[^18F]flortaucipir], the “fraction of [^18F]flortaucipir bound to normal brain sections that was displaced” value in data set [3] (mild wash conditions, remainder non-specific and non-saturable) is “approximately 50%”. Besides, in data set [5] (rats, control vs pargyline 50 mg/kg), the “effect of pargyline pre-treatment on brain uptake and clearance” value was “nearly identical brain uptake with rapid clearance in both the control and pargyline groups”. In data set [6], the “saturability of autoradiography signal on AD tissue” value was “saturable”. Besides, in data set [6] (mild wash, AD and control tissue, 1 μM flortaucipir), the “saturability of off-target binding, mild wash” value is “only partially saturable”. Further, the “[^18F]flortaucipir binding on tissue, mild wash” value in data set [6] (mild washing (PBS), frontal cortex and striatum) was “observed on both AD and control tissues”. Further, the “[^18F]flortaucipir binding on tissue, stringent wash” value in data set [6] (stringent washing (30% and 70% EtOH), frontal cortex and striatum) was “observed only on tau NFT-rich AD tissue, not on control tissue”. Moreover, the “specific binding to MAO-B (radioligand saturation)” value in data set [1] (MAO-B microsomes vs control microsomes or 10 μM deprenyl) is “no specific binding; also recorded: no significant binding”.

`Cc1nccc2c1[nH]c1cc(OCC[18F])ccc12` [[^18F]fluoroethyl-harmol]: the “brain activity at 110 min” value in data set [5] (control rats, 110 min) was 2.1 %ID/g. For the same compound, the peak brain activity in data set [5] (control rats, i.v.) worked out at 2.3 %ID/g; in data set [5] (pargyline 50 mg/kg i.p. pre-treated rats) it was 2.4 %ID/g. For the same compound, in data set [5] (pargyline 50 mg/kg i.p. pre-treated rats, by 20 min), the “brain activity after washout” value is listed as 1.0 %ID/g.

As for `Fc1ccc(-c2ccc3c(c2)[nH]c2ccncc23)cn1` [[^18F]flortaucipir], the Kd in data set [7] stood at 0.57 nM; in data set [8], 2 nM.

The record behind these values is publication PMC9399028 (European Journal of Nuclear Medicine and Molecular Imaging, 2022).
